Columns and labels:
[1] = system: Puccinia recondita var. tritici; assay: Wheat leaf rust control on sprayed wheat seedlings (Example 79); format: in vivo; details: Puccinia recondita, 168 h; 100 ppm spray, day before inoculation
Summary of the method: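 Wheat seedlings were sprayed to run-off with 100 ppm compound suspended in water with 6% acetone and 250 ppm TREM 014 surfactant. Next day they were inoculated with Puccinia recondita var. tritici spores and held 24 h at saturated humidity, 20°. Rust pustules were rated after a further 7 days in a growth room.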

Erysiphe cichoracearum = assay: Cucumber powdery mildew control on sprayed cucumber seedlings (Example 80); format: in vivo; details: Golovinomyces cichoracearum, 168 h, 100 ppm spray, day before inoculation
Erysiphe graminis = assay: Barley powdery mildew control on sprayed barley seedlings (Example 81); format: in vivo; details: Blumeria graminis, 168 h; 100 ppm spray, day before inoculation
Method: The compounds of the previous examples were again dissolved in acetone in an amount equal to 6% of the final volume and then suspended at a concentration of 100 ppm in purified water containing 250 ppm of the surfactant TREM 014 (polyhydric alcohol esters). These suspensions were sprayed to the point of run-off on barley seedlings. The following day, the plants were inoculated with a spore suspension of the fungus Erysiphe graminis, causal agent of barley powdery mildew, and incubated in growth room for 7 days. Disease ratings were then made. Treated plants from successful treatments had little or no powdery mildew in contrast to untreated plants which were covered with powdery mildew.

Venturia inaequalis = assay: Apple scab control on sprayed apple seedlings (Example 82); format: in vivo; details: Venturia inaequalis; for pest or weed control at 100 ppm: 100 ppm spray, day before inoculation
Helminthosporium maydis = assay: Southern corn leaf blight control on sprayed corn seedlings (Example 83); format: in vivo; details: Bipolaris maydis, 192 h, 100 ppm spray, day before inoculation
Summary of the method: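 Compounds in 6% acetone at 100 ppm in water with 250 ppm TREM 014 surfactant, sprayed to run-off on corn seedlings; next day inoculated with spore suspension. 24 h at saturated humidity and 20°, then 7 days in growth room before disease rating; phytotoxicity scored as growth reduction.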

Cercospora arachidicola = assay: Peanut early leafspot control on sprayed peanut seedlings (Example 84); format: in vivo; details: Mycosphaerella arachidis, 360 h, read-out: % Control Peanut Easly Leafspot; for pest or weed control at 100 ppm: 100 ppm spray, day before inoculation
Rhizoctonia solani = assay: Rice sheath blight control on sprayed rice seedlings (Example 87); format: in vivo; details: Rhizoctonia solani, 168 h, 100 ppm spray, day before inoculation
Summary of the method: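 Rice seedlings were sprayed to run-off with 100 ppm compound suspended in water with 6% acetone and 250 ppm TREM 014 surfactant. They were inoculated next day with bran plus R. solani mycelium. Sheath blight was rated after 7 days in a growth room.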

Pyricularia oryzae = assay: whole plant or invertebrate; format: in vivo; details: Pyricularia oryzae, 168 h, read-out: % Control of Rice Blast, 100 ppm spray, day before inoculation
Phytophthora infestans = assay: whole plant or invertebrate; format: in vivo; details: Phytophthora infestans, in Solanum lycopersicum, 168 h, read-out: % Control of Tomato Late Blight, 100 ppm spray, day before inoculation
5 Phytophthora species = format: cell-based; details: 200.0 ppm in V-8 agar, 22° C., 6 days
Pythium aphanadermatum [2] = assay: Pythium control on cotton, seed coating (Example 91); format: in vivo; details: 168 h
Source text: Several compounds of the previous examples were incorporated into a proprietary formulation and used to coat cotton seeds at a rate of 2 gm/kg seed. After being thoroughly coated, the seeds were allowed to air dry at room temperature. The cotton seeds were then planted into soil amended with the fungus Pythium aphanadermatum, sand, and corn meal at a rate sufficient to kill most untreated seeds. The seeds were held at room temperature for 1 week, after which time disease ratings were made.

Pythium aphanadermatum [3] = assay: Pythium control on corn, seed coating (Example 92); format: in vivo; details: 504 h, 2 gm/kg seed
Method: Several compounds of the previous examples were incorporated into a proprietary formulation and used to coat corn seeds at a rate of 2 gm/kg seed. After being thoroughly coated, the seeds were allowed to air dry at room temperature. The seeds were then planted into soil amended with a mixture of the fungus Pythium aphanadermatum, sand, and corn meal at a rate sufficient to kill most untreated seeds. The seeds were held at 49° F. for 2 weeks and then at 70° F. for 1 additional week. After this time disease ratings were made.

cucumber seedlings = assay: Phytotoxicity on cucumber seedlings (Example 80); format: in vivo; parameters: key: G = growth reduction; H = hormonal effects; details: 100 ppm spray
Summary of the method: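 Cucumber seedlings sprayed to run-off with 100 ppm compound suspension (6% acetone, 250 ppm TREM 014 surfactant), inoculated next day with Erysiphe cichoracearum spores, then held 7 days in a growth room before disease rating. Phytotoxicity scored as growth reduction or hormonal effects.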

apple seedlings = assay: Phytotoxicity on apple seedlings (Example 82); format: in vivo; parameters: key: G = growth reduction; H = hormonal effects
Method: These suspensions were sprayed to the point of run-off on apple seedlings. The following day, the plants were inoculated with a spore suspension of the fungus Venturia inaequalis, causal agent of apple scab, and incubated in a saturated humidity chamber at 20° for 24 hours and then in a growth room for an additional 10-12 days. Treated plants from successful treatments had fewer apple scab lesions when compared to untreated plants which were covered with scab lesions. Phytotoxicity expressed as growth reduction was observed on some of the plants in association with disease control.

Monilinia fructicola = assay: Stone fruit brown rot control on dipped canned peach halves (Example 86); details: 120 h, 100 ppm dip, percent growth inhibition of colonies after five days
Source text: Several compounds of the previous examples were again dissolved in acetone in an amount equal to 5% of the final volume and then suspended at a concentration of 100 ppm in purified water containing 700 ppm of the surfactant TREM 014 (polyhydric alcohol esters). Canned peach halves were dipped in this suspension for three minutes and then placed to air dry in sterile containers. Upon drying, the peach halves were inoculated with two pieces of Monilinia fructicola mycelium, causal agent of stone fruit brown rot, and incubated in the sterile containers for five days. At that time the radii of the colonies' growth were measured on each peach. […] Percent disease control (percent growth inhibition of colonies on treated peaches as compared to that of colonies on untreated peaches) is expressed in the table below.

SMILES	pest or weed control at 100 ppm [1]	pest or weed control at 100 ppm (Erysiphe cichoracearum)	pest or weed control at 100 ppm (Erysiphe graminis)	pest or weed control at 100 ppm (Venturia inaequalis)	pest or weed control at 100 ppm (Helminthosporium maydis)	pest or weed control at 100 ppm (Cercospora arachidicola)	pest or weed control at 100 ppm (Rhizoctonia solani)	pest or weed control at 100 ppm (Pyricularia oryzae)	pest or weed control at 100 ppm (Phytophthora infestans)	No. of 5 Phytophthora species controlled in vitro (5 Phytophthora species)	pest or weed control at 0.5 g/kg seed (Pythium aphanadermatum [2]; 0.5 gm/kg seed)	pest or weed control at 2 g/kg seed (Pythium aphanadermatum [3])	Phytotoxicity on cucumber (cucumber seedlings)	Phytotoxicity on apple (apple seedlings; 100 ppm spray)	inhibition of growth at 100 µg/mL (Monilinia fructicola)	pest or weed control at 2 g/kg seed (Pythium aphanadermatum [2]; 2 gm/kg seed)	pest or weed control at 400 ppm (Venturia inaequalis; applied at 400 ppm)	pest or weed control at 400 ppm (Cercospora arachidicola; applied at 400 ppm)	Phytotoxicity on apple (apple seedlings; applied at 400 ppm)
C[Si](C)(Cn1cncn1)c1ccc(Oc2ccccc2)cc1 [Dimethyl(4-phenoxyphenyl)(1H-1,2,4-triazol-1-ylmethyl)silane]	0%	70%	0%	100%	0%	0%	0%	0%	50%	0	18%	0%							
C[Si](C)(Cn1cncn1)c1ccc(Br)cc1 [(4-Bromophenyl)dimethyl(1H-1,2,4-triazol-1-ylmethyl)silane]	80%	100%		90%	90%	0%		0%	0%				G	G					
CCCC[Si](C)(Cn1cncn1)c1ccc(Cl)cc1 (stereo not drawn) [Butyl(4-chlorophenyl)methyl(1H-1,2,4-triazol-1-ylmethyl)silane]	80%	100%	90%	100%	0%	0%	0%	0%	0%				G	G	98%				
C[Si](Cn1cncn1)(c1ccccc1)c1ccc(Cl)cc1Cl (stereo not drawn) [(2,4-Dichlorophenyl)methyl(phenyl)(1H-1,2,4-triazol-1-ylmethyl)silane]	100%	100%		100%	0%	100%	0%	0%	0%				G	G					
Cc1ccc([Si](C)(C)Cn2cncn2)cc1 [Dimethyl(4-methylphenyl)(1H-1,2,4-triazol-1-ylmethyl)silane]	0%	100%		50%	0%	0%		0%	0%			0%	G	G		0%			
C[Si](C)(Cn1cncn1)c1ccccc1C(F)(F)F [Dimethyl(1H-1,2,4-triazol-1-ylmethyl)(2-trifluoromethylphenyl)silane]		100%	100%		0%												65%	25%	G
CCCC[Si](C)(Cn1cncn1)c1ccc(Cl)cc1Cl (stereo not drawn) [Butyl(2,4-dichlorophenyl)methyl(1H-1,2,4-triazol-1-ylmethyl)silane]	100%	100%		100%	100%	100%	50%	0%	0%	0			G	G	98%				
